Data reported in patent US9226965B2, “Method and composition for treating heart failure” (U.S. DEPARTMENT OF VETERANS AFFAIRS, priority 2007, dated 2016).
“Also recorded” adds a separate entry of the source.

Legend:
Assay type in all cases: in vivo, rat
[1] = tested on: left ventricular papillary muscles from SHR with heart failure; assay: Mechanical function of isolated left ventricular papillary muscles from treated SHR with heart failure
Protocol: At the time of sacrifice, left ventricular papillary muscles were dissected free and mounted in an isolated muscle bath containing oxygenated physiologic solution for assessment of mechanical function. Muscle mechanics were measured under computer control of force or length of the preparation. Force and length data were sampled at a rate of 1 kHz and stored on disk for later analysis.
Treatment was continued for 30 days and then the animals studied.
We studied isolated papillary muscle function in the spontaneously hypertensive rat (SHR) which develops heart failure (HF) between 18-24 month of age. […] Following treatment, hearts were isolated and contractile function of LV papillary muscles studied. LV weight and histology were assessed. RNA was isolated from 24 LV samples and subjected to individual Affymetrix (230 2.0) array analysis.

[2] = tested on: left ventricular tissue from SHR with heart failure; assay: Affymetrix (230 2.0) array mRNA analysis of left ventricular tissue from treated SHR with heart failure
Description: Adult male spontaneously hypertensive rats (SHR) rats were purchased as retired breeders from Taconic Inc and boarded in the animal facility at the Boston VA Healthcare system until the time of study (18 to 24 months of age). Each rat was caged alone and allowed free access to chow and water. Animals were monitored several times per week for evidence of tachypnea and labored respiration; when these clinical findings were clearly in evidence, animals were either killed and studied or treated with captopril and/or phenylbutyrate. Groups of animals were treated by adding the angiotensin converting enzyme inhibitor captopril to the drinking water (2 g/L to drinking water) and/or phenylbutyrate to the drinking water (6 g/L to the drinking water; sodium 4-phenylbutyrate (Triple Crown America, Inc.)) when clinical evidence of impaired cardiac function was detected. Treatment was continued for 30 days, the animals closely monitored and then studied. A control group of age-matched, untreated SHR rats was used for comparison. At autopsy, animals were examined for pleural or pericardial effusions, atrial thrombi, and right and left ventricular hypertrophy. The heart was lightly blotted and weight, and individual cardiac chambers were quickly dissected, and chamber weight recorded. Left ventricular tissue samples were rapidly frozen and stored in liquid nitrogen for later mRNA analysis. Subsequently, total RNA was isolated from all left ventricular samples and subjected to individual Affymetrix (230 2.0) array analysis (performed at the Genomics Laboratory of Boston University School of Medicine, Boston Mass.). Six individual animals were included in each experimental group. […] FIGS. 7A-7B provide a visual summary of the quantitative changes in transcripts observed with heart failure (SHR-F) compared to non-failing gene expression (SHR-F vs. SHR-NF) and those effects of treatment (SHR-F+C and SHR-F+CP) relative to un-treated SHR with heart failure. […] FIGS. 8A-8B provide a summary of the number of identified transcripts whose expression was reversed following treatment relative to un-treated SHR with failure. In contrast, phenylbutyrate when combined with captopril treatment reversed expression of more than 47% of heart failure-induced changes in gene expression (p<0.01). […] Analysis of pooled mRNA samples of right ventricular tissue indicate relatively few genes were differentially expressed between LV and RV tissue either with failure or treatment (data not shown). LV and RV are similarly affected by heart failure and amenable to therapeutic treatment effects. Taken together, these findings are consistent with the concept that phenylbutyrate acts as a wide scale inhibitor of transcription to reverse aspects of adverse remodeling and dysfunction associated with heart failure. […] We studied isolated papillary muscle function in the spontaneously hypertensive rat (SHR) which develops heart failure (HF) between 18-24 month of age. Four groups of SHR each consisting of six animals were examined: non-treated SHR with HF (SHR-F), age matched controls without HF (SHR-NF), and SHR with HF that were treated with the ACE inhibitor captopril (2 g/L in drinking water) (SHR-F+C) or captopril combined with the histone deacetylase inhibitor phenylbutyrate (6 g/L in drinking water) for 30 days (SHR-F+CP). […] Following treatment, hearts were isolated and contractile function of LV papillary muscles studied. LV weight and histology were assessed. RNA was isolated from 24 LV samples and subjected to individual Affymetrix (230 2.0) array analysis. Table 3 (below) summarizes the physiological, histological and gene expression findings from this study. […] SHR-F; see FIGS. 7A-7B).

[3] = tested on: SHR with heart failure; assay: Quantitative histological examination of myocardial fibrosis; settings: Table 3, 30 days treatment, mean ± SD
Protocol: We studied isolated papillary muscle function in the spontaneously hypertensive rat (SHR) which develops heart failure (HF) between 18-24 month of age. Four groups of SHR each consisting of six animals were examined: non-treated SHR with HF (SHR-F), age matched controls without HF (SHR-NF), and SHR with HF that were treated with the ACE inhibitor captopril (2 g/L in drinking water) (SHR-F+C) or captopril combined with the histone deacetylase inhibitor phenylbutyrate (6 g/L in drinking water) for 30 days (SHR-F+CP). […] Following treatment, hearts were isolated and contractile function of LV papillary muscles studied. LV weight and histology were assessed. RNA was isolated from 24 LV samples and subjected to individual Affymetrix (230 2.0) array analysis. Table 3 (below) summarizes the physiological, histological and gene expression findings from this study. […] SHR-F; see FIGS. 7A-7B).

[4] = tested on: spontaneously hypertensive rats (SHR) with heart failure; assay: Body weight, cardiac chamber weights and hypertrophy indices in SHR with heart failure after 30 days of treatment
Description: Adult male spontaneously hypertensive rats (SHR) rats were purchased as retired breeders from Taconic Inc and boarded in the animal facility at the Boston VA Healthcare system until the time of study (18 to 24 months of age). Each rat was caged alone and allowed free access to chow and water. Animals were monitored several times per week for evidence of tachypnea and labored respiration; when these clinical findings were clearly in evidence, animals were either killed and studied or treated with captopril and/or phenylbutyrate. Groups of animals were treated by adding the angiotensin converting enzyme inhibitor captopril to the drinking water (2 g/L to drinking water) and/or phenylbutyrate to the drinking water (6 g/L to the drinking water; sodium 4-phenylbutyrate (Triple Crown America, Inc.)) when clinical evidence of impaired cardiac function was detected. Treatment was continued for 30 days, the animals closely monitored and then studied. A control group of age-matched, untreated SHR rats was used for comparison. At autopsy, animals were examined for pleural or pericardial effusions, atrial thrombi, and right and left ventricular hypertrophy. The heart was lightly blotted and weight, and individual cardiac chambers were quickly dissected, and chamber weight recorded. Left ventricular tissue samples were rapidly frozen and stored in liquid nitrogen for later mRNA analysis. Subsequently, total RNA was isolated from all left ventricular samples and subjected to individual Affymetrix (230 2.0) array analysis (performed at the Genomics Laboratory of Boston University School of Medicine, Boston Mass.). Six individual animals were included in each experimental group. Table 1 (below) summarizes body weight, cardiac chamber weight, and ratios with and without treatment. Referring to Table 1, four groups of six SHR/group were examined: non-treated SHR with heart failure (SHR-F), age matched controls without heart failure (SHR-NF), and SHR with heart failure treated with the angiotensin converting enzyme inhibitor captopril (2 g/L in drinking water) (SHR-F+C) or captopril combined with the histone deacetylase inhibitor phenylbutyrate (6 g/L in the drinking water) for 30 days (SHR-F+CP). […] It was observed that SHR rats with heart failure had enlarged hearts and increased cardiac chamber weights relative to non-failing SHR group and the captopril treated SHR groups. In contrast, the rats treated with phenylbutyrate and captopril had far smaller cardiac chamber weights. There were no significant differences in body weight among the experimental groups. Indices of cardiac hypertrophy (i.e. LV/body weight ratio and RV/body weight ratios) were reduced with phenylbutyrate treatment. Cardiac chamber weight to tibia length data confirmed these findings.

[5] = tested on: SHR with heart failure; assay: Serial echocardiographic measurement of LV ejection fraction in SHR; settings: echocardiography, SHR-F following 30 days of treatment, n=6 per group
Description: FIGS. 1A-1B illustrate serial echocardiographic measurements in SHR. LV ejection fraction (FIG. 1A) and end-systolic and end-diastolic LV volume (FIG. 1B) of male SHR during the transition to heart failure (12, 17, and 19 months of age). EF, LV ejection fraction (%); ESV, end-systolic volume (ml); EDV, end-diastolic volume (ml). LV function remains compensated until approximately 17 months, and then rapidly declines; mean age at onset of heart failure 19±1 months. FIGS. 2A-2B represent serial echocardiographic measurements (n=6 animals per group) of LV ejection fraction (LVEF) from individual SHR obtained before the onset of heart failure (Baseline), at the time of heart failure (HF) and following 30 days of treatment (Rx) with either captopril (CAPT—FIG. 2A) or combined captopril and phenylbutyrate treatment (CAPT+PB—FIG. 2B). Note marked reduction in LVEF with HF. […] FIG. 3 illustrates LV ejection fraction (LVEF) in non-failing SHR (SHR-NF), SHR with HF (SHR-F) and SHR-F following 30 days of captopril (CAPT) or combined phenylbutyrate and captopril treatment (CAPT+PB). […] Data are mean±SD (n=6 per group).

[6] = Table 2, LV papillary muscle after 30 days treatment, mean ± SD
[7] = Table 3, LV papillary muscle after 30 days treatment, mean ± SD
[8] = Table 3, LV samples, p < 0.01 vs. SHR-F
[9] = of 1431 genes different between SHR-F and SHR-NF, p<0.01 vs. SHR-F
[10] = Table 1, SHR with heart failure, 30 days treatment, mean ± SD, n=6

C[C@H](CS)C(=O)N1CCC[C@H]1C(=O)O [captopril]
quick release force-velocity (F-V) relationships from LV papillary muscles, result in words ([1]; FIG. 6A): not significantly increased | active tension (AT) of LV papillary muscles, result in words ([1]; FIG. 6B): did not improve | contractile function and passive muscle stiffness, result in words ([1]; SHR with heart failure, 30 days treatment): did not restore contractile function or reduce passive muscle stiffness | +dT/dt (rate of tension development) [1, 6]: 28.4 ± 8.0 g/mm^2/s | AT (active tension) [1, 6]: 2.7 ± 0.4 g/mm^2 | Kwm (whole muscle stiffness) [1, 6]: 73.9 ± 4.2 | V1.0 (shortening velocity) [1, 6]: 0.9 ± 0.2 muscle length/s | AT (active tension) [1, 7]: 2.7 ± 0.4 g/mm^2 | V0.1 (shortening velocity) [1, 7]: 0.9 ± 0.2 muscle lengths/s | Gene Expression (number), down-regulated (↓) vs. SHR-F [2, 8]: 42 | Gene Expression (number), up-regulated (↑) vs. SHR-F [2, 8]: 99 | number of identified genes down-regulated by treatment (overexpressed/induced with heart failure) ([2]; identified transcripts): 12 | number of identified genes up-regulated by treatment (repressed with heart failure) ([2]; identified transcripts): 15 | number of identified genes whose expression was reversed by treatment ([2]; identified transcripts, relative to un-treated SHR with failure): 27 | number of genes whose change in expression was significantly reversed [2, 9]: 141 | percentage of genes whose change in expression was significantly reversed [2, 9]: 9.8% | transcripts significantly modified with treatment ([2]; of heart failure-altered transcripts, p<0.01): < 2% | Fibrosis (%) [3]: 22.8 ± 3.1 % | LV/BW ratio, index of LV hypertrophy, result in words ([4]; FIG. 4A, SHR-F following 30 days of treatment): no significant reduction | RV/BW ratio, index of RV hypertrophy, result in words ([4]; FIG. 4B, SHR-F following 30 days of treatment): decreased with treatment | LV/body wt. (left ventricular to body weight ratio) [4, 10]: 3.3 ± 0.3^+ ratio | RV/body wt. (right ventricular to body weight ratio) [4, 10]: 0.86 ± 0.20^+ ratio | LV/Body Weight (ratio) ([4]; Table 3, SHR with heart failure, 30 days treatment, mean ± SD): 3.3 ± 0.4 ratio | LV ejection fraction (LVEF), result in words [5]: minimal improvement; also recorded: no significant change
